According to US6503934B2, “Substituted thiadiazolesulfonamides” (Aventis Pharma Deutschland GmbH, priority 1998, dated 2003):

Tested on: release of IL-1β
Assay: Inhibition of LPS-induced IL-1β release from isolated human mononuclear cells (enzyme immunoassay)
Type: cell-based
Details: human mononuclear cells from citrate blood, lipopolysaccharide (Salmonella abortus equi) induced, 37° C. for 20 hours, IL-1β in supernatant; seven concentrations
Procedure: The mononuclear cells were concentrated from freshly obtained human citrate blood by known standard processes. See, e.g., Tiku et al., J. Immunol. 136/10 (1986) 3677.
15 ml of Lymphoprep® (Molter GmbH, Heidelberg, FRG) was carefully introduced under a layer of 10 ml of freshly prepared human citrate blood and the mixture was then centrifuged at 400×g (Minifuge®, Heraeus, Hanau, FRG) at 20° C. for 40 minutes. The cell fraction, showing as a white ring in the phase boundary, was withdrawn with the aid of a syringe, diluted 1:1 (v/v) with PM-16 buffer (Serva, Heidelberg, FRG) and centrifuged again as above for 10 minutes. The […] was taken up in 10 ml of RPMI 1640 buffer (Gibco, Berlin, FRG), to which 300 mg/I of L-glutamine, 25 mmol/l of HEPES, […] of penicillin had been added beforehand. The cell suspension, comprising about 90% lymphocytes and 10% monocytes, was adjusted to about 5 million cells/ml with the aid of a cell counter (type IT, Coulter Diagnostics, Krefeld, FRG). The cell viability was checked with the aid of the known lactate dehydrogenase method before and after the inhibition experiments. No change in the viability was found here.
The synthesis and release of cellular IL-1β was induced by adding a solution of […] of lipopolysaccharide (Salmonella abortus equi, Sigma GmbH, Deisenhofen, FRG) in 0.01 ml of dimethyl sulfoxide/water (1:10, v/v) to 0.48 ml of the cell fraction described above. At the same time, a solution of the test substance in 0.01 ml was added to the cell fraction, and the mixture was left in a commercially available incubator at 37° C. for 20 hours. After the sample had been cooled to 0° C., it was centrifuged in a bench centrifuge for 1 minute and in each case 0.025 ml aliquots of the supernatant were investigated specifically for their IL-1β content with the aid of a commercially available “sandwich” enzyme immunoassay kit (Biosource, Ratingen, FRG), in accordance with the manufacturer's instructions. The control values, without addition of the test preparation, were determined and set at 100%. In particular, any influence of dimethyl sulfoxide on the IL-1β level was excluded by corresponding comparison measurements.
The concentration range was chosen here such that it comprised the ranges from 0% inhibition (that is to say without addition of the test substance) to at least 80% inhibition. The test substance concentration which led to 50% inhibition of the release of IL-1β was determined by extrapolation from the dose-effect relationship determined by graph or mathematically.
IC50 value has been shown in Table 2 as micromoles/liter for the corresponding compounds of the formula (I) according to the invention.

IC50 | Compound
3 µM | O=S(=O)(c1nc(-c2ccccc2)ns1)N1CCOCC1 [Example 2]
6 µM | O=S(=O)(NC1CCCCC1)c1nc(-c2ccccc2)ns1 [Example 5]
4 µM | CN1CCN(S(=O)(=O)c2nc(-c3ccccc3)ns2)CC1 [Example 8]
10 µM | O=S(=O)(c1nc(-c2ccccc2)ns1)N1CCN(c2ccc(Cl)cc2)CC1 [Example 10]
2 µM | CCOC(=O)C1CCN(S(=O)(=O)c2nc(-c3ccccc3)ns2)CC1 [Example 12]
2 µM | O=C1CCN(S(=O)(=O)c2nc(-c3ccccc3)ns2)CC1 [Example 13]
2 µM | O=C(O)C1CCN(S(=O)(=O)c2nc(-c3ccccc3)ns2)CC1 [Example 14]
2 µM | CC(=O)N1CCN(S(=O)(=O)c2nc(-c3ccccc3)ns2)CC1 [Example 15]
8 µM | O=C(O)[C@@H]1CCCN1S(=O)(=O)c1nc(-c2ccccc2)ns1 [Example 18]
12 µM | O=C(c1ccc(F)cc1)C1CCN(S(=O)(=O)c2nc(-c3ccccc3)ns2)CC1 [Example 20]
2 µM | CN1CCN(S(=O)(=O)c2nc(-c3ccc(Cl)cc3)ns2)CC1 [Example 25]

Continued, compound first:

Compound | IC50
CN(c1ccccc1)S(=O)(=O)c1nc(-c2ccccc2)ns1 [Example 1] | 11 µM
O=S(=O)(Nc1ccc(Cl)cc1)c1nc(-c2ccccc2)ns1 [Example 3] | 34 µM
O=S(=O)(NCc1ccccc1)c1nc(-c2ccccc2)ns1 [Example 4] | 15 µM
COC(=O)[C@H](C)NS(=O)(=O)c1nc(-c2ccccc2)ns1 [Example 7] | 2 µM
O=C(O)C1CCC(CNS(=O)(=O)c2nc(-c3ccccc3)ns2)CC1 (centres unmarked) [Example 9] | 2 µM
C[C@H](NS(=O)(=O)c1nc(-c2ccccc2)ns1)C(=O)O [Example 16, (S)-2-(3-Phenyl-(1,2,4)-thiadiazole-5-sulfonylamino)propionic acid] | 10 µM
C[C@H](NS(=O)(=O)c1nc(-c2ccccc2)ns1)C(=O)OCc1ccccc1 [Example 17] | 10 µM
O=C(O)CNS(=O)(=O)c1nc(-c2ccccc2)ns1 [Example 19] | 40 µM
O=C(O)CCNS(=O)(=O)c1nc(-c2ccccc2)ns1 [Example 21] | 6 µM
O=C(O)[C@H](Cc1ccccc1)NS(=O)(=O)c1nc(-c2ccccc2)ns1 [Example 22] | 20 µM
CC(C)OC(=O)[C@H](C)NS(=O)(=O)c1nc(-c2ccccc2)ns1 [Example 23] | 6 µM
COc1ccc(-c2nsc(S(=O)(=O)N3CCN(C)CC3)n2)cc1Cl [Example 24] | 20 µM
